Measured values taken from US20090124672A1 (priority 2007, published 2009).
“And” between values parts separate entries of the source, which are not always exact repeats. Identical values can stand only once. One block for each molecule: values may come before it.

How the values were obtained:
[1] = test system: Sprague-Dawley rats treated with DMCM; test: Social interaction test, DMCM-induced anxiety; type: in vivo, rat; conditions: 3.75, 7.5 or 15 mg/kg i.p. 15 min before 0.5 mg/kg DMCM
Excerpt: (§1) Experienced observers blinded to the experimental conditions carried out the social interaction test in a square open field (60 cm by 60 cm, with 16 15×15 cm squares marked out on the floor). Pairs of rats receiving the same treatment were placed in the arena and the onset of social interactions recorded. This procedure has been validated by previous studies (Overstreet et al. (2002); Overstreet et al. (2003)). Rats were unfamiliar with the open field and lighting conditions were low in order to generate an intermediate level of anxiety-related behavior. Rat pairs matched according to weight and treatment were placed simultaneously in the open field. During the 5-min session, line crosses (by two forepaws) and time spent in social interaction (grooming, sniffing, following) were scored individually for each rat (Kampov-Polevoy et al., 2000; Overstreet et al., 2002, 2003).
(§2) Fifteen min later the rats received a second injection of 0.5 mg/kg DMCM (methyl 6,7-demethoxy-4-ethyl-β-carboline-3-carboxylate) or vehicle (acidified saline). The rats were placed in the open field arena 15 min after the second injection for recording social interaction and locomotor activity for 5-min. Approximately one week later the rats were treated with Compound A (3.75, 7.5 or 15 mg/kg). The 5-HT2C agonist mCPP (m-chlorophenylpiperazine; 0.5 mg/kg) or vehicle (saline) was given 15 min later. After another 15 min period, the social interaction and locomotor activity for five min were recorded.

[2] = test system: congenitally anxious Fawn-Hooded (FH) rats; test: Social interaction test, Fawn Hooded (FH) rat model of anxiety; type: in vivo; conditions: 15 mg/kg i.p., 30 min after injection
Excerpt: as §1

[3] = test system: alcohol-withdrawn Sprague-Dawley (SD) rats; test: Social interaction test, repeated alcohol withdrawal-induced anxiety; type: in vivo, rat
Excerpt: as §1
Ethanol Exposure Studies: Individually housed Sprague-Dawley (SD) rats were given a complete nutritious liquid diet (Knapp et al., 2004; Overstreet et al., 2002) after 5 days to adapt to local conditions. Three days later, most of rats received a 4.5% ethanol liquid diet and others remained on the control liquid diet without ethanol. Rats consumed ethanol for 15 days in three cycles of 5 days each separated by a 2-day withdrawal period between cycles. This design enabled us to test two treatment regimens with Compound A. Acute effects of Compound A (3.75 and 15 mg/kg) were determined 4.5 hr after the 3rd ethanol cycle to allow alcohol washout. The social interaction test was carried out 30 min later.

[4] = test system: SD rats subjected to restraint stress; test: Social interaction test, restraint-induced stress; type: in vivo, rat; conditions: 15 mg/kg pretreatment
Excerpt: as §1
Restraint-Induced Stress Study: SD rats were injected with either CMC vehicle or 15 mg/kg Compound A in vehicle and subjected to restraint stress in decapicones for one hour. After a 30-min recovery period, the rats were exposed to the open field arena for […] and social interaction and line crosses recorded.

[5] = test system: Sprague-Dawley rats treated with mCPP; test: Social interaction test, mCPP-induced anxiety; type: in vivo, rat; conditions: 3.75, 7.5 or 15 mg/kg 15 min before 0.5 mg/kg mCPP
Excerpt: as §1, §2

[6] = test system: Rats; test: Example 32 alcohol, food and water intake; type: in vivo, rat; conditions: 15 mg/kg
Excerpt: (§3) One noninjected rat was included in the control group for water intake.

[7] = test system: Rats; test: Example 32 social interaction, line crosses and center entries; type: in vivo, rat; design: Social Interaction, Mean / Social Interaction, individual rat: unit not given here; conditions: 15 mg/kg
Excerpt: as §3

[8] = biological target: T1, hMAO-B (Homo sapiens, UniProt P27338); test: MAO-B inhibition assay (Amplex Red, horseradish peroxidase-coupled); type: biochemical
T1 construct: purchased Sigma M7441
T1 sequence (P27338 1-520): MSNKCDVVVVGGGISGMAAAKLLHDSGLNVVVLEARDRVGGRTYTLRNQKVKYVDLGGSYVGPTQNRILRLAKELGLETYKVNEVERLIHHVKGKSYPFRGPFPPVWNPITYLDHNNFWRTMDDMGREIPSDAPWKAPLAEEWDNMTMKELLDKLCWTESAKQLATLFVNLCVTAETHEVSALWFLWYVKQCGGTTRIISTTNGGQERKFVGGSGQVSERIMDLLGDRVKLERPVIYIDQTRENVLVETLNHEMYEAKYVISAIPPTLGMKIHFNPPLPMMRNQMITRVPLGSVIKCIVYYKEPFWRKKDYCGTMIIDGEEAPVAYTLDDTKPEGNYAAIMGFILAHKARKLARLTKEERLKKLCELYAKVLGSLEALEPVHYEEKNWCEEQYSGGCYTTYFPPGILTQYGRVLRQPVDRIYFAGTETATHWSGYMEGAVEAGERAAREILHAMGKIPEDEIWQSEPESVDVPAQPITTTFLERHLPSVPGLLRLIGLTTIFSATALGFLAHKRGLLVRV
In short: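 Human MAO-A (0.6 U/ml) or MAO-B (2.5 U/ml) in 0.1 M potassium phosphate pH 7.5 with 0.5 mM tyramine, 0.12 mM Amplex Red and HRP; compounds at 0.1 nM-10 μM, 30 min at 37 °C, absorbance at 570 nm. Background set with clorgyline (MAO-A) or deprenyl (MAO-B); IC50 from sigmoidal fits.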

[9] = biological target: T2, hMAO-A (Homo sapiens, UniProt P21397); test: MAO-A inhibition assay (Amplex Red, horseradish peroxidase-coupled); type: biochemical
T2 construct: purchased Sigma M7316
T2 sequence (P21397 1-527): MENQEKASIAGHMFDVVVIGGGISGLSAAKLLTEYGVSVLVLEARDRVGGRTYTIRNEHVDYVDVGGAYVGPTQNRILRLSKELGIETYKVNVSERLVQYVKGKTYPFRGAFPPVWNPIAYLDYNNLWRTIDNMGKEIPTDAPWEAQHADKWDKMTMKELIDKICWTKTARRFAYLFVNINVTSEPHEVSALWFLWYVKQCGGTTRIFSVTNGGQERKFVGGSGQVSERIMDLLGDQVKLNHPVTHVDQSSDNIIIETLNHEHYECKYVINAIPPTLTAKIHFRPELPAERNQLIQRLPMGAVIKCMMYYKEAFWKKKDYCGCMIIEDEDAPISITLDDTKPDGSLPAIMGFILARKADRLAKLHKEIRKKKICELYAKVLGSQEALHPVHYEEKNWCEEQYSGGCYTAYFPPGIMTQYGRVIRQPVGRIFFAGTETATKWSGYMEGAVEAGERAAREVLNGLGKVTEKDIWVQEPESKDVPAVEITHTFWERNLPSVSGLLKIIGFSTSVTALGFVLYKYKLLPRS
Protocol: MAO-A (Sigma M7316) and MAO-B (Sigma M7441) inhibition assays were conducted in 96-well micro-plates according to the method described by Zhou et al. [Analytical Biochemistry 253, 169-174, 1997]. Both assays were performed in potassium phosphate buffer (0.1 M, pH 7.5) containing 0.5 mM tyramine (Sigma T2879), 0.12 mM N-acetyl-3,7-dihydrophenoxazine (Amplex Red, Invitrogen A12222), 1.2 unit/ml horseradish peroxidase (Sigma P2088), 0.6 unit/ml MAO-A or 2.5 unit/ml MAO-B, and various concentrations of test compounds (0.1 nM to 10 uM). Reactions were initiated by the addition of a pre-mixed solution of tyramine, horseradish peroxidase and Amplex Red, and were allowed to proceed at 37° C. for 30 min. Enzyme activities were determined by measuring absorbance at 570 nm (SpectralMax Plate reader), absorbance of oxidized Amplex Red generated by this horseradish peroxidase-coupled reaction. Nonspecifically formed products were determined in the presence of 2 and 10 µM clorgyline and deprenyl for MAO-A and MAO-B, respectively. IC50 values were determined by fitting concentration-inhibition data to sigmoidal dose-response curves with two-floating parameters: IC50 and Hill coefficient.

[10] = biological target: T3, hALDH2 (recombinant human mitochondria ALDH) (Homo sapiens, UniProt P05091); test: ALDH2 inhibition assay (NADH formation, formaldehyde substrate); type: biochemical
T3 sequence (P05091 18-517): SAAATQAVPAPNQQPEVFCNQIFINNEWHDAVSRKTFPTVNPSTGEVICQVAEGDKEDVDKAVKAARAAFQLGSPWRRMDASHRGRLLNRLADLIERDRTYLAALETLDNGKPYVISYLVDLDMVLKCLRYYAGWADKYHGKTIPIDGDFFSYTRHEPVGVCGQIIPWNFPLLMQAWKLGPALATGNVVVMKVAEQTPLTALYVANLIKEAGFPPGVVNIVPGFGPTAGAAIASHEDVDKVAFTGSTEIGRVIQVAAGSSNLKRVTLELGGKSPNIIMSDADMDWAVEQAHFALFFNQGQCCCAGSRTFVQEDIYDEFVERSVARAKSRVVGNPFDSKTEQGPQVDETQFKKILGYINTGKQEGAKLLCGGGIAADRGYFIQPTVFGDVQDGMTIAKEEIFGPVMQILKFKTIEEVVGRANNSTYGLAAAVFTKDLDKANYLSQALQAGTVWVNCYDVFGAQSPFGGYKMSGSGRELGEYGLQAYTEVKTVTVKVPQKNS
In short: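 1 nM enzyme in 50 mM sodium phosphate pH 7.4 with 1.2 mM NAD+ and compound at 0.03–1000 nM; reaction started with 0.15 mM formaldehyde at 25 °C. NADH formation followed by fluorescence (ex 340/em 460 nm). IC50 from sigmoidal fits with floating Hill slope; apparent Ki from Morrison equation if tight binding.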

[11] = test system: Syrian golden hamsters; conditions: compared with daidzin; cited from earlier work
[12] = 30 min before test, listed as Comp. A

Structure (SMILES): CS(=O)(=O)Nc1ccc(-c2coc3cc(OCc4cccc(C(=O)O)c4)ccc3c2=O)cc1 [Compound A, 3-[(3-{4-[(methylsulfonyl)amino]phenyl}-4-oxochromen-7-yloxy)methyl]benzoic acid]
anxiogenic effects of DMCM (reduced social interaction) [1]: prevented by Compound A in a dose-dependent manner
reduced locomotor activity caused by DMCM [1]: not affected by Compound A, except at 7.5 mg/kg
locomotor line crossing [2]: did not affect locomotor line crossing
increase in social interaction ([2]; vs vehicle): 2 fold
social interaction behavior, prophylactic treatment ([3]; 3.75-15 mg/kg during 1st and 2nd withdrawals, none after 3rd cycle, tested 5 days after last dose): increased social interaction behavior prophylactically
locomotor activity ([3]; acute treatment after alcohol withdrawal, SD rats): No significant differences
time of social interaction after alcohol withdrawal ([3]; acute, 3.75 and 15 mg/kg injected 30 min before testing, SD rats): increased the time of social interaction
social interaction behavior after alcohol withdrawal ([3]; acute, higher doses, SD rats): completely normalizing the behavior
locomotor activity (line crosses), prophylactic treatment ([3]; compared to vehicle treated rats withdrawn from the alcohol liquid diet): barely significant effect
locomotor activity after restraint stress [4]: no significant
social interaction after restraint stress ([4]; restraint 60 min, 30-min recovery): prevented stress-induced anxiety-like behavior
mCPP-induced anxiogenesis (social interaction) [5]: did not prevent mCPP-induced anxiogenesis
food intake, in words [6]: did not affect
water intake, in words [6]: did not affect
2 hr Alcohol Intake, Mean ([6]; 2 hr, n=6): 0.2
2 hr Alcohol Intake, individual rat ([6]; 2 hr, listed as Comp. A): 0 (2×) and 0.38 (3×) and 0.19
4 hr Alcohol Intake, Mean ([6]; 4 hr, n=6): 0.7
4 hr Alcohol Intake, individual rat ([6]; 4 hr, listed as Comp. A): 0.88 and 0.4 and 0.76 and 0.95 and 0.38 and 0.57
6 hr Alcohol Intake, Mean ([6]; 6 hr, n=6): 1.3
6 hr Alcohol Intake, individual rat ([6]; 6 hr, listed as Comp. A): 1.72 and 1.2 and 1.23 and 1.71 and 0.95 and 1
24 hr Alcohol Intake, Mean ([6]; 24 hr, n=6): 4.1
24 hr Alcohol Intake, individual rat ([6]; 24 hr, listed as Comp. A): 3.2 and 4 and 4.94 and 5.32 and 3.23 and 3.6
alcohol intake, in words ([6]; from 2-6 hr): reduced alcohol intake
Food Intake, Mean ([6]; n=6): 19.7
Food Intake, individual rat ([6]; listed as Comp. A): 19 (2×) and 18 and 21 (2×) and 20
Center Entries, Mean ([7]; 30 min before test, n=6): 19.3
Line Crosses, Mean ([7]; 30 min before test, n=6): 109
Center Entries, individual rat [7, 12]: 28 and 25 and 18 and 13 and 26 and 6
Line Crosses, individual rat [7, 12]: 135 and 125 and 84 and 113 and 104 and 90
Social Interaction, Mean ([7]; 30 min before the social interaction, n=6): 13.3
Social Interaction, individual rat ([7]; 30 min before the social interaction, listed as Comp. A): 13 and 16 and 14 (2×) and 11 and 12
activity, in words ([7]; vs vehicle): not activity
social interaction (anxiolytic effect), in words ([7]; vs vehicle): increased social interaction

IC50 [8]: 2300 nM
IC50 [9]: 24000 nM
IC50 [10]: 130 nM
Structure (SMILES): CCOC(=O)c1ccc(COc2ccc3c(=O)c(-c4ccc(O)cc4)coc3c2)cc1 [PT-34, ethyl 4-{[3-(4-hydroxyphenyl)-4-oxochromen-7-yloxy]methyl}benzoate]

inhibition at 10 µM ([8]; at 10 μM, read-out: hMAO-B inhibition (IC50 hMAO-B)): 35%
IC50 [9]: 6200 nM
IC50 [10]: 23 nM
Structure (SMILES): N#CCOc1ccc2c(=O)c(-c3ccc(O)cc3)coc2c1 [PT-88, 2-[3-(4-hydroxyphenyl)-4-oxochromen-7-yloxy]ethanenitrile]

Structure (SMILES): O=c1c(-c2ccc(O)cc2)coc2cc(O)ccc12 [daidzein]
suppressing ethanol uptake [11]: effective in suppressing ethanol uptake, but with decreased potency
